Experimental data published in patent publication US11505523B2, “HDAC8 inhibitors for treating cancer” (City of Hope, priority 2013, dated 2022).
Entries after “also recorded” stand apart in the source; their conditions may differ.

Assays:
[1] = tested on: p53 target genes in pre-leukemic and leukemic progenitor cells expressing CM; conditions: 10 μM, 16 h, qRT-PCR
Description: Relative expression of each target gene was normalized to levels of Hprt. Shown are fold activation compared to levels in vehicle treated cells (dashed line). Results represent the mean±SD.
We next examined whether enhanced p53 acetylation translate into increased p53 transcriptional activity. Using qRT-PCR assay, we accessed induction of p53 target genes in CM-ΔC95, CM, and CBFβ expressing cells upon IR (3Gy).

[2] = target: HDAC1 (Homo sapiens (Human), UniProt Q13547); test: Inhibition of purified HDAC1; format: biochemical; conditions: class I; read-out: HDAC 1 IC50
HDAC1, sequence (Q13547 whole entry, species assumed): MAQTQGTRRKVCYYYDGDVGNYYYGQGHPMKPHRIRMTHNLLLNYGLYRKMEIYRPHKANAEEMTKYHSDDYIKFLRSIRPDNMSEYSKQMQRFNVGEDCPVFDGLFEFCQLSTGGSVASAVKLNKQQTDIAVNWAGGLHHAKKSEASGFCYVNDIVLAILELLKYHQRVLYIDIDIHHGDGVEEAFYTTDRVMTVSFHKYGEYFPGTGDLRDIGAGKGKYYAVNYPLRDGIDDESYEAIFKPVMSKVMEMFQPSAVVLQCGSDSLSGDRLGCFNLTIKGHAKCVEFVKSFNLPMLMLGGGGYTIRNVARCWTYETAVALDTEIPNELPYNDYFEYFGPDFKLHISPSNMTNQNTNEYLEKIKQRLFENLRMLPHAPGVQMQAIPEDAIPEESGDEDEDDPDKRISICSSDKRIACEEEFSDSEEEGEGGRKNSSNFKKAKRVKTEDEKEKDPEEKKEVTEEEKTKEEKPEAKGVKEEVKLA

[3] = tested on: normal IMR-90 cells; test: Cytotoxicity in normal IMR-90 cells; conditions: result in words
[4] = tested on: inv(16)^+ AML CD34^+ cells; test: Proliferation of inv(16)+ AML CD34+ cells, ATP-based cell viability assay; set-up: species or system human; conditions: 48 h, 2.5 μM to 40 μM, compared to normal CD34+ cells
[5] = target: HDAC4 (Homo sapiens (Human), UniProt P56524); test: Inhibition of purified HDAC4; conditions: read-out: HDAC 4 IC50; class II
HDAC4, sequence (P56524 whole entry, species assumed): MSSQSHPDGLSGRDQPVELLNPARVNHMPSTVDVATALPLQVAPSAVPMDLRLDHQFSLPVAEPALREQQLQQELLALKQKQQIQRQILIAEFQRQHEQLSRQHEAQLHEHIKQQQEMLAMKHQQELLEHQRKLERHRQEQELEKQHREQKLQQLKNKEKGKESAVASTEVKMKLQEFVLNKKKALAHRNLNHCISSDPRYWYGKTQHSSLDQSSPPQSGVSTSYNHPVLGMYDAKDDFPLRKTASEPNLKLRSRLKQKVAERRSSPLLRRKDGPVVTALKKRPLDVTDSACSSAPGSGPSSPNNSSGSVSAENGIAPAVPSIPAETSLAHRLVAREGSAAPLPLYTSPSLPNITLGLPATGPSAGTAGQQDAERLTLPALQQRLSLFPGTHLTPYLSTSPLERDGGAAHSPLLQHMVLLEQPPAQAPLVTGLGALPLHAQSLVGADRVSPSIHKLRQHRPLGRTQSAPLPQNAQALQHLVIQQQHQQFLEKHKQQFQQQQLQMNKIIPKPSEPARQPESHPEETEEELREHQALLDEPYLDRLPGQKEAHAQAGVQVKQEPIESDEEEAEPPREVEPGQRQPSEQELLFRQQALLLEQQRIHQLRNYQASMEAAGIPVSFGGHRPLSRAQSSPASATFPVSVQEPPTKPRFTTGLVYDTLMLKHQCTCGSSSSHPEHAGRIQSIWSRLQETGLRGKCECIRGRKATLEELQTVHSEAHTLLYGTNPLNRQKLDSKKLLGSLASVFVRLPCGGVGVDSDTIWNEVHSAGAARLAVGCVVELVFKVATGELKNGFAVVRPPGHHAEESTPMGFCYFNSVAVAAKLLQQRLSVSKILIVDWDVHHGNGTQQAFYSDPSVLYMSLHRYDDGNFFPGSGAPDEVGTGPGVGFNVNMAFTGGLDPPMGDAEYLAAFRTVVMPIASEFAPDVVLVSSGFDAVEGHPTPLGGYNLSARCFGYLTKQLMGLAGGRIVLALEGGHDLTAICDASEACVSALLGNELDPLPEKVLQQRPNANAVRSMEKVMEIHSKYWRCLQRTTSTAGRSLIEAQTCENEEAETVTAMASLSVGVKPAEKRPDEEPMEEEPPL

[6] = tested on: normal CD34^+ cells; test: Apoptosis/cytotoxicity in normal CD34+ cells
Description: (§1) Given that the frequency of TP53 mutation is relatively low in AML, altered post-translational modification by HDAC8 could represent an alternative p53-inactivating mechanism and contribute to drug resistance of AML stem cells. We first examined the expression of HDAC8 in CD34^+ stem and progenitor cells isolated from patients with inv(16)^+ AML compared to normal mobilized peripheral blood stem cells (PBSC).

[7] = tested on: OCI-AML3 cells; test: Survival/apoptosis of OCI-AML3 AML cells by Annexin V labeling; format: cell-based, human
[8] = tested on: MV4-11 cells; test: Proliferation of MV4-11 cells, luminescent cell viability assay; format: cell-based, human; conditions: 48-hr, luminescent cell viability assay; read-out: MV4-11 Proliferation IC50
[9] = tested on: HeLa nuclear HDACs; test: Inhibition of HeLa nuclear HDACs (HeLa nuclear extract, mainly HDACs1-3); format: biochemical; conditions: read-out: HeLa HDAC IC50
[10] = tested on: Ac-p53 (K382) in inv(16)^+ AML CD34^+ cells; test: Western blot of Ac-p53 (K382) in inv(16)+ AML CD34+ cells; conditions: 6 h
Description: (§2) We therefore tested whether inhibiting HDAC8 deacetylase activity in inv(16)^+ AML CD34^+ cells could similarly lead to increased p53 acetylation and transcriptional activity.

[11] = tested on: H1299 cells; test: Cytotoxicity / anti-proliferative activity in H1299 lung cancer cells
[12] = tested on: Cl1-1 cells; test: Cytotoxicity / anti-proliferative activity in CL1-1 lung cancer cells; conditions: read-out: Cytotoxicity IC50 Cl1-1; mean SD of three determinations
[13] = tested on: MOLM13 cells; test: Proliferation of MOLM13 cells, luminescent cell viability assay; format: cell-based, human; conditions: 48-hr, luminescent cell viability assay; read-out: MOLM13 Proliferation IC50
[14] = tested on: dTomato^+/cKit^+ AML cells; test: In vivo administration of 22d to mice transplanted with AML cells
Method: FIG. 7A-7I. […] FIG. 7A: Schematic illustration of experimental design. Cbfb^+/56MMx1Cre/tdTomato^+ mice were induced with pIpC and AML cells were isolated from bone marrow of moribund mice and transplanted into sub-lethally irradiated (6.5 Gy) C57Bl/6 congenic mice. […] AML engraftment was analyzed at the end of the treatment period, and transplanted into 2nd recipients. Recipients were analyzed for engraftment at 8 weeks or monitored for leukemia onset and survival. […] Mice were analyzed 8 weeks after transplantation. […] FIG. 7G.
AML cells (1×10^6 or 2×10^6) were directly transplanted into sub-lethally irradiated congenic recipients. […] To further assess the impact on LSC activity, we transplanted bone marrow cells (2×10^6) from these treated mice into secondary recipients and analyzed for AML engraftment.

[15] = tested on: normal HSCs (CB CD34^+ cells); test: Engraftment of normal CB CD34+ cells treated ex vivo into NSG mice; conditions: 10 μM 48 h ex vivo, 16 weeks
Description: FIGS. 18A-18F. […] Shown are engraftment levels of each population (CD45+, CD34+, CD33+, CD14+, CD15+) in the bone marrow and spleen weight at 16 weeks after transplantation. […] FIGS. 18A-18F (in order): CD45+, CD34+, CD33+, CD14+, CD15+, and spleen.
AML is maintained by LSCs that are relatively resistant to chemotherapy and can persist as potential sources of relapse. Even though AML with CBF translocations are considered to have favorable prognosis, the incidence of relapse is still 25-58% with chemotherapy.

[16] = tested on: MV4-11 cells; test: Survival/apoptosis of MV4-11 AML cells by Annexin V labeling; format: cell-based, human
[17] = tested on: MOLM13 cells; test: Survival/apoptosis of MOLM13 AML cells by Annexin V labeling; format: cell-based, human
[18] = tested on: Ac-p53 in non-inv(16) AML (p53 non-mutated) CD34^+ cells; test: Western blot of Ac-p53 in non-inv(16) AML CD34+ cells; conditions: similar treatment
Description: as §2

[19] = tested on: Ac-p53 and p53 in MV4-11 cells; test: Western blot of Ac-p53 and p53 in MV4-11 cells; format: cell-based, human; conditions: 6-hr, increased HDAC8i concentration
Method: FIGS. 21A-21D. HDAC8 inhibition activates p53 and induces p53-dependent apoptosis in human AML cells. […] FIG. 21B: Western blot analysis of Ac-p53, total p53, Ac-H3, Ac-H4, β-actin in MV4-11 cells treated with indicated doses of HDAC8i for 6 h. FIG. 21C: Fold change in mRNA levels of p53 targets after treatment with PCI-48012 ([…]) for 16 h. FIG. 21D: Western blot analysis of p53, β-actin in MV4-11 cells transduced with control or sh-p53 (top). Relative survival of control or sh-p53 transduced MV4-11 cells treated with HDAC8i (bottom).

[20] = tested on: inv(16)^+ AML CD34^+ cells; test: Apoptosis of inv(16)+ AML CD34+ cells, Annexin V staining; format: cell-based, human
Description: as §1

COc1ccc(/C=C/C(=O)NO)c(-c2ccc(-c3ccccc3)cc2)c1 [Compound 22d, (E)-N-Hydroxy-4-methoxy-2-(biphenyl-4-yl)cinnamide]
activation of p53 target genes in progenitor cells expressing endogenous levels of CM [1]: induces activation of p53 targets
IC50 [2]: 3 ± 0.2 nM
cytotoxicity in normal IMR-90 cells [3]: no significant cytotoxicity
proliferation of inv(16)+ CD34+ cells [4]: significantly reduced proliferation
IC50 [5]: > 20 nM
difference between CD34+ cells from PBSC and CB ([6]; based on cell origin): no significant difference
cytotoxicity in normal CD34+ cells ([6]; higher dose (40 μM), 48 h): Modest cytotoxicity
IC50 ([7]; 48-hr, Annexin V labeling, read-out: OCI-AML3 Apoptosis IC50): 8120 nM
survival of OCI-AML3 cells ([7]; 48 h, result in words): decreases with increased HDAC8i concentration
IC50 [8]: 2480 nM
IC50 [9]: > 10000 nM
Ac-p53 (K382) level in inv(16)+ AML CD34+ cells [10]: elevated levels of Ac-p53 (K382)
IC50 ([11]; read-out: Cytotoxicity IC50 H1299, mean SD of three determinations): 7.2 ± 0.7 nM
anti-proliferative effects in H1299 cells ([11]; result in words): moderate anti-proliferative effects
IC50 [12]: > 10 nM
IC50 [13]: 2420 nM
leukemia onset in secondary recipients ([14]; 5-7 weeks after transplant of 5×10^6 BM cells): no signs of leukemia
frequency and number of AML cells in bone marrow of secondary recipients ([14]; 8 weeks after transplantation of BM from treated mice): Significant reduction in the frequency (p<0.0001) and the number (p=0.0006)
frequency and number of dTomato+/cKit+ AML cells in the bone marrow ([14]; intraperitoneal 50 mg/kg/dose twice a day for 2 weeks, vs vehicle): significantly reduced the frequency (p=0.0097) and the number (p=0.0101)
engraftment activity of normal HSCs [15]: does not affect normal HSC engraftment; also recorded: no impact on short-term or long-term engraftment activity
IC50 ([16]; 48-hr, Annexin V labeling, read-out: MV4-11 Apoptosis IC50): 2710 nM
survival of MV4-11 cells ([16]; 48 h, result in words): decreases with increased HDAC8i concentration
IC50 ([17]; 48-hr, Annexin V labeling, read-out: MOLM13 Apoptosis IC50): 3620 nM
survival of MOLM13 cells ([17]; 48 h, result in words): decreases with increased HDAC8i concentration
Ac-p53 level in non-inv(16) AML CD34+ cells [18]: did not affect Ac-p53
Ac-p53 and p53 signal by western blot [19]: greater signal for Ac-p53 and p53
apoptosis of inv(16)+ AML CD34+ cells ([20]; 48 h, compared to normal CD34+ cells or non-inv(16) AML): selectively induced apoptosis
22d-induced apoptosis after p53 knock-down ([20]; p53 shRNA vs non-silencing shRNA control, 2.5-40 μM): reduction of 22d-induced apoptosis
